These results are taken from PubChem BioAssay AID720495 (Broad Institute, 2013).

Records with an inconclusive call do not appear. Active and inactive are the calls of the source. How the calls were made is not given here.

A word on the AC50: it is the concentration giving half of the maximal activity seen.

For one test, the target named is Protein AF-9 (Homo sapiens) (UniProt P42568). The test is described as follows: inhibitors of AF4-AF9 protein interaction, dose response, biochemical, cherry-picked samples, plate reader (AID 720495). The following applies: biochemical protein-protein interaction assay.
Chain of Protein AF-9 (Homo sapiens) (P42568 whole entry, looked up): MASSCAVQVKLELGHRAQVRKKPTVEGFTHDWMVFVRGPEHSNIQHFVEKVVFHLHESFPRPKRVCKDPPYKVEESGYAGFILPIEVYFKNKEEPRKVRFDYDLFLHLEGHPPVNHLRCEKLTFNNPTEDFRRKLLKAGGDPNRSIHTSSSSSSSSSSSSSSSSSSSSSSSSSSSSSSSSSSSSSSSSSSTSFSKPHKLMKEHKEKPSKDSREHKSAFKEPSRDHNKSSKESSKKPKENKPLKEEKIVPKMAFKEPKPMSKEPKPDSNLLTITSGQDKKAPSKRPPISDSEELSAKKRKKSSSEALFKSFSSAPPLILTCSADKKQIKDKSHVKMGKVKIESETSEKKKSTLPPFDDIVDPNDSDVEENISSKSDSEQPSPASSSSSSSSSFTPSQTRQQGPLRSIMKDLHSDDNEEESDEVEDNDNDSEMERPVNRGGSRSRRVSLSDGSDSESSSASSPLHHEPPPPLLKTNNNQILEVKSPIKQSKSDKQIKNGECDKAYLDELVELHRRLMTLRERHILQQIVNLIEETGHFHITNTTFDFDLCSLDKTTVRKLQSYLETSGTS
With `Cc1ccnc(NC(c2cccnc2)c2ccc3cccnc3c2O)c1` (stereo unspecified), the half-maximal activity concentration (AC50) was 0.808 µM. On to `Cc1cccc(N=NC(=S)NNc2cccc(C)c2)c1`, for which the half-maximal activity concentration (AC50) was 0.212 µM. Still for that read-out and setting: under `CN(C)c1ccc(/C=C/c2cc[n+](C)c3ccccc23)cc1` stands 1.05 µM. Regarding `CN1CCN(CCCCOc2ccccc2C=O)CC1`, the AC50 is 10.6 µM.

With `COc1ccc(C2CC(=O)Oc3c(C(CCN4CCCC(C)C4)c4ccc(N(C)C)cc4)c(OC)cc(OC)c32)cc1` (stereo unspecified), the AC50 is 0.68 µM.

Turning to `CN1CCN(C(c2ccc(Br)cc2)c2cc(Cl)c3cccnc3c2O)CC1` (stereo unspecified), the AC50 was 1.47 µM. Turning to `COc1ccc2[nH]c(C)c(CCNCc3cn(C)c4ccccc34)c2c1`, the concentration at half-maximal activity (AC50) was 6.85 µM. On the same count and under the same terms, under `NC(N)=N/N=C/c1cn(-c2ccccc2)nc1-c1cccs1` stands 3.92 µM; under `O=C(COc1ccc2ccc(=O)oc2c1)Nc1ccc(N2CCCCC2)cc1`, 9.56 µM; under `O=C(c1ccc(-c2cc(O)c3ncccc3c2)cc1)N1CCNCC1`, 0.426 µM. The same measure, in the same setting: under `C[C@@H]1CN([C@@H](C)CO)C(=O)c2cc(N(C)C)ccc2O[C@@H](C)CCCCO[C@@H]1CN(C)Cc1ccc(C(F)(F)F)cc1` stands 10.5 µM; under `C[n+]1c(-c2ccc(C=NNC(=O)c3ccc(C(=O)NN=Cc4ccc(-c5cn6ccccc6[n+]5C)cc4)cc3)cc2)cn2ccccc21`, 0.804 µM.

Turning to `CCN(CC)c1ccc(CNc2nc3ccccc3n2CCN2CCCCC2)cc1`, the concentration at half-maximal activity (AC50) is 5.83 µM. Same read-out and setting: the figure for `COc1ccccc1C#Cc1ccc2c(c1)[C@H]1[C@H](CCN1C(=O)c1ccncc1)[C@@H](CO)N2` is 7.63 µM; for `CCN1CCN(c2ccc(N)cc2C)CC1` it is 6.46 µM; for `CCN(CC)c1ccc(C(=C2C=CC(=[N+](CC)CC)C=C2)c2ccccc2)cc1` it is 0.685 µM. As to `CN1CCN(c2ccc(N)cc2Cl)CC1`, the AC50 was 2.11 µM. Regarding `CC[n+]1c(/C=C/C=C/c2ccc(N(C)C)cc2)sc2ccccc21`, the AC50 is 0.522 µM. As for `CCN(CC)c1ccc(C(=C2C=CC(=[N+](CC)CC)C=C2)c2ccc(S(=O)(=O)O)cc2S(=O)(=O)[O-])cc1`, the concentration at half-maximal activity (AC50) was 4.29 µM. Turning to `O=c1[nH]c2ccccc2n1C1CCN(C(c2nnnn2C2CCCCC2)C2CC2)CC1` (stereo unspecified), the concentration at half-maximal activity (AC50) is 11.1 µM. For the compound `CN1CCN(C(c2ccc(C(F)(F)F)cc2)c2cc(Cl)c3cccnc3c2O)CC1` (stereo unspecified), the half-maximal activity concentration (AC50) was 1.54 µM. The same measure, in the same setting: the figure for `O=C(Nc1ccc(N2CCCCCC2)cc1)c1ccc[nH]1` is 5.21 µM; for `COc1cc(Nc2c3ccccc3nc3ccccc23)cc(OC)c1OC` it is 0.234 µM; for `Oc1ccc(O)c(C=NNC(=S)NC2CC3CC2C2C=CCC32)c1` (stereo unspecified) it is 8.16 µM. Same read-out and setting: the figure for `COc1ccccc1C(CCNCc1ccc(N(C)C)cc1)c1ccc(OC(C)C)cc1` (stereo unspecified) is 3.3 µM.

In the case of `CN(C)c1ccc(C=c2c3cc(O)ccc3n3c2cc(-c2ccccc2)[n+]3C)cc1`, the concentration at half-maximal activity (AC50) is 0.975 µM. Same read-out and setting: under `Oc1cc(Nc2cccnc2)cc2cccnc12` stands 6.03 µM.

On to `CN(C)c1ccc(Nc2nc(N)c3ccccc3n2)cc1`, for which the AC50 was 7.47 µM. On the same count and under the same terms, under `COc1cc(OC)c2c(-c3ccccc3)cc(=O)oc2c1C(CCN1CCCC(C)C1)c1ccc(N(C)C)cc1` (stereo unspecified) stands 0.943 µM; under `COc1ccc(S(=O)(=O)/N=C2\C=C(Nc3ccc(O)cc3)C(=O)c3ccccc32)cc1`, 0.724 µM. For `N=C(N)c1ccc(/C=C/c2ccc(C(=N)N)cc2O)cc1`, the AC50 is 3.33 µM. The same measure, in the same setting: under `COCCN=c1scc(-c2ccco2)n1/N=C/c1ccc(O)c(O)c1O` stands 0.538 µM; under `COc1cc(OC)c2c(c1C(CCN1CCOCC1)c1ccc(N(C)C)cc1)OC(=O)CC2c1ccc(N(C)C)cc1` (stereo unspecified), 10.7 µM. As for `CC(C)(C)OC(=O)N1CCCN(C(c2ccnc3ccccc23)c2nnnn2-c2ccc3c(c2)OCCO3)CC1` (stereo unspecified), the AC50 was 0.312 µM.

On to `Cc1c(P(=S)(c2ccccc2)c2ccccc2)[n+]2ccccc2n1C`, for which the AC50 is 7.98 µM. Turning to `CCN(CC)CCC(c1ccc(N(C)C)cc1)c1c(OC)cc(OC)c2c(-c3ccccc3)cc(=O)oc12` (stereo unspecified), the AC50 was 3.97 µM. Take `CCOc1ccc(NCc2cccn2-c2nnc(N3CCC(C(=O)NCCCN4CCCCC4CC)CC3)s2)cc1` (stereo unspecified): the AC50 was 4.01 µM. On the same count and under the same terms, under `C[C@@H]1NC(=O)N[C@@H]1CCCCCC(=O)O` stands under 0.08 µM; under `Cc1[nH]c2ccccc2c1N=Nc1ccccc1F`, 10.2 µM; under `NCC(O)c1cc(O)c(O)cc1F` (stereo unspecified), 6.14 µM. The same measure, in the same setting: the figure for `CN(C)CC/C=C1/c2ccc(F)cc2Sc2ccc(Cl)cc21` is 5.01 µM; for `CN(C)c1ccc(N=Cc2cccn2C)cc1` it is 0.83 µM. The same measure, in the same setting: the figure for `CN(C)c1cccc2c(C=C(C#N)C#N)ccc(N(C)C)c12` is 1.04 µM; for `c1ccc(N=Nc2ccc3cccccc2-3)cc1` it is 0.232 µM.

`CCOc1ccc(NCc2cccn2-c2nnc(N3CCC(C(=O)NCCCN4CCCCC4C)CC3)s2)cc1` (stereo unspecified): the AC50 is 4.96 µM. Still for that read-out and setting: under `CC(C)(C)C1=CC(=Nc2ccccc2N)C=C(C(C)(C)C)C1=O` stands 0.761 µM.

Staying with this test, now noted: biochemical protein-protein interaction assay, at 10 µM (top of the series).
`CN(C)c1ccnc2c[cH-]cc12.[Fe].c1ccc(-[c-]2[c-](-c3ccccc3)[c-](-c3ccccc3)[c-](-c3ccccc3)[c-]2-c2ccccc2)cc1` (stereo unspecified): the “activity change, negative = inhibition” value is “inactive”. As to `COc1ccc(N2CCN(C(=O)C3CCCN(S(=O)(=O)c4c(C)noc4C)C3)CC2)cc1` (stereo unspecified), the “activity change, negative = inhibition” value was “inactive”. Take `Nc1ccc(N)c(C(=O)O)c1`: the “activity change, negative = inhibition” value is “inactive”. The same measure, in the same setting: the entry for `CN1CCN(CCCN2c3ccccc3Sc3ccc(C(F)(F)F)cc32)CC1` is “inactive”.

With `Cc1cc(C)c2sc(N(CCCN(C)C)C(=O)c3ccc(S(=O)(=O)N4CCCc5ccccc54)cc3)nc2c1`, the “activity change, negative = inhibition” value was “inactive”. Still for that read-out and setting: the entry for `O=C(NN1C(=O)/C(=C/c2ccc(O)c(O)c2)SC1=S)c1ccccc1` is “inactive”; for `Fc1ccc(-[n+]2nc(Nc3ccccc3)sc2-c2c(Cl)cccc2Cl)cc1` it is “inactive”; for `CC(C)C[C@@H](C(=O)NC1CCN(Cc2ccccc2)CC1)N1C(=O)N2CCc3c([nH]c4ccccc34)[C@@]2(C)C1=O` it is “inactive”.

For `Cc1cc(N=Nc2ccc(Cl)cc2)cc(CN2CCOCC2)c1O`, the “activity change, negative = inhibition” value is “inactive”. On the same count and under the same terms, the entry for `COc1cccc(-c2sc3ccccc3c2-c2ccc(OCCN(C)C)cc2)c1` is “inactive”; for `CN(C)c1ccc(C(CN)c2c[nH]c3ccccc23)cc1` (stereo unspecified) it is “inactive”; for `COc1cc2c(cc1N)-c1ccc(N)cc1C2=O` it is “inactive”. As for `CCN(CC)CCSc1nc2ccccc2c(=S)n1-c1ccccc1`, the “activity change, negative = inhibition” value was “inactive”. Turning to `CCCCOc1ccc2c(c1)C(=O)c1cc(O)ccc1-2`, the “activity change, negative = inhibition” value was “inactive”. The same measure, in the same setting: the entry for `CCOc1cc(N2CCOCC2)c(OCC)cc1NC(=O)c1ccc2ccccc2n1` is “inactive”; for `COc1ccc2sc(N(CCCN(C)C)C(=O)c3ccc(S(=O)(=O)N(C)C4CCCCC4)cc3)nc2c1` it is “inactive”.

As for `COc1ccc(OC)c(NC2=C(Cl)C(=O)N(Cc3ccccc3)C2=O)c1`, the “activity change, negative = inhibition” value is “inactive”. The same measure, in the same setting: under `CCOc1cc(CNc2cccc3[nH]c(C)nc23)ccc1OC` stands “inactive”; under `O=S(=O)(c1ccc(Cl)cc1)N1CCN(Cc2ccc(O)c3ncccc23)CC1`, “inactive”; under `COc1cc(OC)c2c(-c3ccccc3)cc(=O)oc2c1C(CCN1CCOCC1)c1ccc(N(C)C)cc1` (stereo unspecified), “inactive”. For the compound `Cc1ccc(NC(=S)N(CCCN2CCCC2)Cc2cccn2Cc2ccc(Cl)cc2)cc1`, the “activity change, negative = inhibition” value was “inactive”.

On to `Nc1ccc(O)c2c1C(=O)c1ccccc1C2=O`, for which the “activity change, negative = inhibition” value was “inactive”.

Consider `Cn1cc(C(=O)N/N=C/c2c(O)ccc3ccccc23)ccc1=O`, for which the “activity change, negative = inhibition” value was “inactive”.

As for `CN(C)c1ccc(C(CNC(=O)c2ccccc2)c2c[nH]c3ccccc23)cc1` (stereo unspecified), the “activity change, negative = inhibition” value is “inactive”.

Consider `Cn1c(SCC(=O)N2c3ccccc3Sc3ccc(Cl)cc32)nnc1-c1ccco1`, for which the “activity change, negative = inhibition” value was “inactive”. Same read-out and setting: the entry for `COc1ccc(N2CCN(c3cc(C)nc4ccc(OC)cc34)CC2)cc1` is “inactive”; for `COc1ccc(N2CCN(C3CCCCC3NS(=O)(=O)c3ccccc3)CC2)cc1` (stereo unspecified) it is “inactive”. Same read-out and setting: the entry for `Nc1ccccc1Nc1cc(-c2ccccc2)nn1-c1cccc(Cl)c1` is “inactive”.

Regarding `COc1cc(/C=N/N=C(N)N)ccc1OCc1ccc(Cl)cc1`, the “activity change, negative = inhibition” value was “inactive”. Still for that read-out and setting: under `CSCCC(c1nnnn1C1CCCCC1)N1CCC(n2c(=O)[nH]c3ccccc32)CC1` (stereo unspecified) stands “inactive”. Still for that read-out and setting: under `CCN(CC)CCNc1cccc2sc3ccccc3c(=O)c12` stands “inactive”; under `COc1ccc(/C=N/N2CCN(c3ccccc3OC)CC2)cc1Br`, “inactive”; under `C[C@@H]1ON(C)[C@H]2C[C@H]3c4[nH]c5ccc(-c6ccc7c(c6)OCO7)cc5c4CCN3C[C@@H]12`, “inactive”. The same measure, in the same setting: the entry for `CCOC(=O)C1CCN(C2=C(NS(=O)(=O)c3ccc(Cl)cc3)C(=O)c3ccccc3C2=O)CC1` is “inactive”; for `COc1ccc(CN2CC3(C2)CN(Cc2ccc4c(c2)OCO4)[C@H](CO)c2[nH]c4cc(OC)ccc4c23)cc1` it is “inactive”. Consider `CCN(CC)c1ccc(CN2CCC(C(=O)NCc3ccc(C)cc3)CC2)cc1`, for which the “activity change, negative = inhibition” value is “inactive”. On the same count and under the same terms, under `Cc1[nH]n(-c2ccccc2)c(=O)c1N=Nc1c(O)cc(S(=O)(=O)N(C)C)c2ccccc12` stands “inactive”. For the compound `CN(C)CCNc1nc2sc3c(c2c(=O)n1CCc1ccccc1)CCCCC3`, the “activity change, negative = inhibition” value was “inactive”. The same measure, in the same setting: the entry for `CC(C)n1ncc2c(C(=O)Nc3ccc(S(N)(=O)=O)cc3)cc(C3CC3)nc21` is “inactive”. For the compound `Cn1cc(CN2CCC(C(=O)NC(c3ccc(F)cc3)c3ccc4ccccc4n3)CC2)c2ccccc21` (stereo unspecified), the “activity change, negative = inhibition” value is “inactive”.
